Data as given in patent US20080108600A1, “Polycyclic Pyridines as Potassium Ion Channel Modulators” (Icagen, Inc., priority 2004, published 2008).

How the values were obtained:
hSK2 = hSK2 (Homo sapiens, UniProt Q9H2S1); test: 86Rb+ efflux assay for compound activity towards hSK channels; assay type: cell-based; settings: 86Rb+ efflux stimulated with calcium ionophore; drug 0.01 to 30 μM; read-out: hSK2 Inhibitory Activity
Method: 24.1 Assay for Compound Activity Towards hSK Channels
Cells expressing small conductance, calcium activated potassium channels, such as SK-like channels were loaded with ^86Rb^+ by culture in media containing ^86RbCl. Following loading, the culture media was removed and the cells were washed in EBSS to remove residual traces of ^86Rb^+. Cells were preincubated with the drug (0.01 to 30 μM in EBSS) and then ^86Rb^+ efflux was stimulated by exposing cells to EBSS solution supplemented with a calcium ionophore, such as ionomycin, in the continued presence of the drug. After a suitable efflux period, the EBSS/ionophore solution was removed from the cells and the ^86Rb^+ content was determined by Cherenkov counting (Wallac Trilux). Cells were then lysed with a SDS solution and the ^86Rb^+ content of the lysate was determined. Percent ^86Rb^+ efflux was calculated according to the following equation:
(^86Rb^+ content in EBSS/(86Rb^+ content in EBSS+^86Rb^+ content of the lysate))×100

[1] = test system: learning and memory formation for a passive avoidance task in mice following electroconvulsive shock; test: Electroconvulsive shock-passive avoidance model; settings: Mus musculus, ip, passive avoidance after electroconvulsive shock, read-out: In Vivo Inhibitory Activity (minimum effective dose, (MED))
Excerpt: 25.1 Assay for Compound Activity in an Electroconvulsive Shock-Passive/Avoidance Model
The effects of compounds of the invention were studied on learning and memory formation for a passive avoidance task in mice following electroconvulsive shock training utilizing a modification of the protocol described by Inan, et al., Eur. J. Pharmacol., (2000), 407(1-2): 159-64.

[2] = target: T1, recombinant human SK4 (hIK1, hKCa4) channels (Homo sapiens, UniProt O15554); settings: applied to the inside of SK4 channel-expressing membrane patches; cited from earlier work
T1 construct: host or cells: HEK 293

SMILES	IC50 (hSK2) [nM]	minimal effective dose [1] [mg/kg]	activation of SK4 channels [2]
COc1ccc(-c2nccs2)nc1Nc1ccc(N2CCOCC2)cn1 [(3-Methoxy-6-thiazol-2-yl-pyridin-2-yl)-(5-morpholin-4-yl-pyridin-2-yl)-amine]	< 100	< 2	
CN1CCN(c2ccc(Nc3cccc(-c4nccs4)n3)nc2)C(=O)C1 [4-Methyl-1-[6-(6-thiazol-2-yl-pyridin-2-ylamino)-pyridin-3-yl]-piperazin-2-one]	100 to 500	< 2	
[Zn+2] [zinc]			did not activate the SK4 channels
Clc1cnc(-c2cccc(Nc3ccc(N4CCCCC4)cn3)n2)s1 [[6-(5-Chloro-thiazol-2-yl)-pyridin-2-yl]-(3,4,5,6-tetrahydro-2H-[1,3′]bipyridinyl-6′-yl)-amine]	100 to 500	< 2	
CN1CCC(=O)N(c2ccc(Nc3cccc(-c4nccs4)n3)nc2)CC1 [1-Methyl-4-[6-(6-thiazol-2-yl-pyridin-2-ylamino)-pyridin-3-yl]-[1,4]diazepan-5-one]	100 to 500	< 2	
c1ccc(-c2ccc(Nc3cccc(-c4nccs4)n3)nc2)cc1 [(5-Phenyl-pyridin-2-yl)-(6-thiazol-2-yl-pyridin-2-yl)-amine]	100 to 500	< 2	
[Co+2] [cobalt]			did not activate the SK4 channels
Clc1ccc(Nc2cccc(-c3nccs3)n2)nc1 [(5-Chloro-pyridin-2-yl)-(6-thiazol-2-yl-pyridin-2-yl)-amine]	< 100	2 to 100	
c1cc(Nc2ccc(-c3ccsc3)cn2)nc(-c2nccs2)c1 [(6-Thiazol-2-yl-pyridin-2-yl)-(5-thiophen-3-yl-pyridin-2-yl)-amine]	< 100	< 2	
COc1ccc(-c2nccs2)nc1Nc1ccc(N2CCCCC2)cn1 [(3-Methoxy-6-thiazol-2-yl-pyridin-2-yl)-(3,4,5,6-tetrahydro-2H-[1,3′]bipyridinyl-6′-yl)-amine]	< 100	< 2	
[Mg+2] [magnesium]			did not activate the SK4 channels
[Sr+2] [strontium]			activated SK4 channels in a concentration-dependent manner
O=C1CNCCN1c1ccc(Nc2cccc(-c3nccs3)n2)nc1 [1-[6-(6-Thiazol-2-yl-pyridin-2-ylamino)-pyridin-3-yl]-piperazin-2-one]	100 to 500	< 2	
COc1ccc(-c2nccs2)nc1Nc1ccc(N2CCCC2=O)cn1 [1-[6-(3-Methoxy-6-thiazol-2-yl-pyridin-2-ylamino)-pyridin-3-yl]-pyrrolidin-2-one]	< 100	< 2	
[Pb+2] [lead]			activated SK4 channels in a concentration-dependent manner
[Fe] [iron]			did not activate the SK4 channels
O=C1CCCN1c1ccc(Nc2cccc(-c3ncc(Cl)s3)n2)nc1 [1-{6-[6-(5-Chloro-thiazol-2-yl)-pyridin-2-ylamino]-pyridin-3-yl}-pyrrolidin-2-one]	< 100	< 2	
Cc1cnn(-c2cccc(Nc3ccc(Br)cn3)n2)c1 [(5-Bromo-pyridin-2-yl)-[6-(4-methyl-pyrazol-1-yl)-pyridin-2-yl]-amine]	< 100	< 2	
COc1ccc(-c2nccs2)nc1Nc1ccc(N2CCN(C)CC2)cn1 [(3-Methoxy-6-thiazol-2-yl-pyridin-2-yl)-[5-(4-methyl-piperazin-1-yl)-pyridin-2-yl]-amine]	< 100	< 2	

SMILES	IC50 (hSK2) [nM]	minimal effective dose [1] [mg/kg]	activation of SK4 channels [2]
COc1ccc(-c2ncc(Cl)s2)nc1Nc1ccc(N2CCCC2)cn1 [[6-(5-Chloro-thiazol-2-yl)-3-methoxy-pyridin-2-yl]-(5-pyrrolidin-1-yl-pyridin-2-yl)-amine]	< 100	< 2	
Clc1ccc(Nc2cccc(-c3cnccn3)n2)nc1 [(5-Chloro-pyridin-2-yl)-(6-pyrazin-2-yl-pyridin-2-yl)-amine]	100 to 500	< 2	
Clc1ccc(Nc2cccc(-n3cccn3)n2)nc1 [(5-Chloro-pyridin-2-yl)-(6-pyrazol-1-yl-pyridin-2-yl)-amine]	< 100	2 to 100	
COc1ccc(-c2nccs2)nc1Nc1ccc(N2CCCC2)cn1 [(3-Methoxy-6-thiazol-2-yl-pyridin-2-yl)-(5-pyrrolidin-1-yl-pyridin-2-yl)-amine]	< 100	< 2	
c1cc(Nc2cc3c(cn2)CCCC3)nc(-c2nccs2)c1 [(5,6,7,8-Tetrahydro-isoquinolin-3-yl)-(6-thiazol-2-yl-pyridin-2-yl)-amine]	< 100	< 2	
Cc1cnn(-c2cccc(Nc3ccc(-c4cccc(F)c4)cn3)n2)c1 [[5-(3-Fluoro-phenyl)-pyridin-2-yl]-[6-(4-methyl-pyrazol-1-yl)-pyridin-2-yl]-amine]	< 100	< 2	
COc1ccccc1-c1ccc(Nc2cccc(-c3nccs3)n2)nc1 [[5-(2-Methoxy-phenyl)-pyridin-2-yl]-(6-thiazol-2-yl-pyridin-2-yl)-amine]	100 to 500	2 to 100	
CCc1cnc(-c2cccc(Nc3ccc(N4CCCCC4=O)cn3)n2)s1 [6′-[6-(5-Ethyl-thiazol-2-yl)-pyridin-2-ylamino]-3,4,5,6-tetrahydro-[1,3′]bipyridinyl-2-one]	100 to 500		
COc1ccc(-c2nccs2)nc1Nc1ccc(-c2ccccc2)cn1 [(3-Methoxy-6-thiazol-2-yl-pyridin-2-yl)-(5-phenyl-pyridin-2-yl)-amine]	100 to 500		
Cc1ccc(Nc2cccc(-c3nccs3)n2)nc1 [(5-Methyl-pyridin-2-yl)-(6-thiazol-2-yl-pyridin-2-yl)-amine]	< 100	2 to 100	
COc1ccc(-c2nccs2)nc1Nc1ccc(N2CCNC(C)C2)cn1 (centres unmarked) [(3-Methoxy-6-thiazol-2-yl-pyridin-2-yl)-[5-(3-methyl-piperazin-1-yl)-pyridin-2-yl]-amine]	100 to 500		
Cc1ccc(-c2ccc(Nc3cccc(-c4nccs4)n3)nc2)o1 [[5-(5-Methyl-furan-2-yl)-pyridin-2-yl]-(6-thiazol-2-yl-pyridin-2-yl)-amine]	< 100		
c1cc(Nc2ccc(CN3Cc4ccccc4C3)cn2)nc(-c2nccs2)c1 [[5-(1,3-Dihydro-isoindol-2-ylmethyl)-pyridin-2-yl]-(6-thiazol-2-yl-pyridin-2-yl)-amine]		< 2	
c1cc(Nc2ccc(CN3CCCC3)cn2)nc(-c2nccs2)c1 [(5-Pyrrolidin-1-ylmethyl-pyridin-2-yl)-(6-thiazol-2-yl-pyridin-2-yl)-amine]	< 100	< 2	
Fc1cccc(Nc2cccc(-c3nccs3)n2)n1 [(6-Fluoro-pyridin-2-yl)-(6-thiazol-2-yl-pyridin-2-yl)-amine]	500 to 1000		
c1cc(Nc2ccc(-c3ccco3)cn2)nc(-c2nccs2)c1 [(5-Furan-2-yl-pyridin-2-yl)-(6-thiazol-2-yl-pyridin-2-yl)-amine]	< 100		
COc1ccc(-c2nccs2)nc1Nc1ccccn1 [(3-Methoxy-6-thiazol-2-yl-pyridin-2-yl)-pyridin-2-yl-amine]	< 100		
CN1CCN(c2ccc(Nc3cccc(-n4cccn4)n3)nc2)CC1 [[5-(4-Methyl-piperazin-1-yl)-pyridin-2-yl]-(6-pyrazol-1-yl-pyridin-2-yl)-amine]	500 to 1000		
